System: DNA repair protein genes
Assay: DNA chip mRNA expression in yeast, DNA repair protein genes (Table 3)
Assay type: cell-based, Saccharomyces cerevisiae S288C
Details: incubated two hours, concentrations as in the 1st table
Summary of the method: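 Measured as treated-to-untreated fluorescence ratio on a full-genome yeast DNA chip. Cells (S288C, YPD, 25° C.) were exposed in log phase for two hours to one chemical, dosed to curb growth without killing.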

## manganese ethylenebis(dithiocarbamate) [(8)]
Yeast gene YAL015C
  The level of expressed mRNA in the presence of chemical substance/The level of expressed mRNA in the absence of chemical substance: 1.1
Yeast gene YAR007C
  The level of expressed mRNA in the presence of chemical substance/The level of expressed mRNA in the absence of chemical substance: 1.1
Yeast gene YBL019W
  The level of expressed mRNA in the presence of chemical substance/The level of expressed mRNA in the absence of chemical substance: 1.2
Yeast gene YBR073W
  The level of expressed mRNA in the presence of chemical substance/The level of expressed mRNA in the absence of chemical substance: 1.1
Yeast gene YBR272C
  The level of expressed mRNA in the presence of chemical substance/The level of expressed mRNA in the absence of chemical substance: 1.1
Yeast gene YCR014C
  The level of expressed mRNA in the presence of chemical substance/The level of expressed mRNA in the absence of chemical substance: 1.0
Yeast gene YDL017W
  The level of expressed mRNA in the presence of chemical substance/The level of expressed mRNA in the absence of chemical substance: 1.2
Yeast gene YDL059C
  The level of expressed mRNA in the presence of chemical substance/The level of expressed mRNA in the absence of chemical substance: 1.2
Yeast gene YDL200C
  The level of expressed mRNA in the presence of chemical substance/The level of expressed mRNA in the absence of chemical substance: 1.5
Yeast gene YDR054C
  The level of expressed mRNA in the presence of chemical substance/The level of expressed mRNA in the absence of chemical substance: 1.5
Yeast gene YDR369C
  The level of expressed mRNA in the presence of chemical substance/The level of expressed mRNA in the absence of chemical substance: 1.0
Yeast gene YEL019C
  The level of expressed mRNA in the presence of chemical substance/The level of expressed mRNA in the absence of chemical substance: 0.9
Yeast gene YEL037C
  The level of expressed mRNA in the presence of chemical substance/The level of expressed mRNA in the absence of chemical substance: 0.8
Yeast gene YER162C
  The level of expressed mRNA in the presence of chemical substance/The level of expressed mRNA in the absence of chemical substance: 0.9
Yeast gene YFL014W
  The level of expressed mRNA in the presence of chemical substance/The level of expressed mRNA in the absence of chemical substance: 3.4
Yeast gene YGL058W
  The level of expressed mRNA in the presence of chemical substance/The level of expressed mRNA in the absence of chemical substance: 1.3
Yeast gene YGL091C
  The level of expressed mRNA in the presence of chemical substance/The level of expressed mRNA in the absence of chemical substance: 1.8
Yeast gene YGL127C
  The level of expressed mRNA in the presence of chemical substance/The level of expressed mRNA in the absence of chemical substance: 0.9
Yeast gene YGL163C
  The level of expressed mRNA in the presence of chemical substance/The level of expressed mRNA in the absence of chemical substance: 1.4
Yeast gene YGL249W
  The level of expressed mRNA in the presence of chemical substance/The level of expressed mRNA in the absence of chemical substance: 0.9
Yeast gene YGR180C
  The level of expressed mRNA in the presence of chemical substance/The level of expressed mRNA in the absence of chemical substance: 1.0
Yeast gene YGR231C
  The level of expressed mRNA in the presence of chemical substance/The level of expressed mRNA in the absence of chemical substance: 1.1
Yeast gene YGR258C
  The level of expressed mRNA in the presence of chemical substance/The level of expressed mRNA in the absence of chemical substance: 0.8
Yeast gene YHR164C
  The level of expressed mRNA in the presence of chemical substance/The level of expressed mRNA in the absence of chemical substance: 1.1
Yeast gene YIL036W
  The level of expressed mRNA in the presence of chemical substance/The level of expressed mRNA in the absence of chemical substance: 1.1
Yeast gene YIL072W
  The level of expressed mRNA in the presence of chemical substance/The level of expressed mRNA in the absence of chemical substance: 1.4
Yeast gene YIL143C
  The level of expressed mRNA in the presence of chemical substance/The level of expressed mRNA in the absence of chemical substance: 0.9
Yeast gene YIL153W
  The level of expressed mRNA in the presence of chemical substance/The level of expressed mRNA in the absence of chemical substance: 0.5
Yeast gene YIR002C
  The level of expressed mRNA in the presence of chemical substance/The level of expressed mRNA in the absence of chemical substance: 1.2
Yeast gene YJL026W
  The level of expressed mRNA in the presence of chemical substance/The level of expressed mRNA in the absence of chemical substance: 1.2
Yeast gene YJR046W
  The level of expressed mRNA in the presence of chemical substance/The level of expressed mRNA in the absence of chemical substance: 0.9
Yeast gene YJR052W
  The level of expressed mRNA in the presence of chemical substance/The level of expressed mRNA in the absence of chemical substance: 1.7
Yeast gene YKL145W
  The level of expressed mRNA in the presence of chemical substance/The level of expressed mRNA in the absence of chemical substance: 1.5
Yeast gene YLR103C
  The level of expressed mRNA in the presence of chemical substance/The level of expressed mRNA in the absence of chemical substance: 1.4
Yeast gene YLR233C
  The level of expressed mRNA in the presence of chemical substance/The level of expressed mRNA in the absence of chemical substance: 1.1
Yeast gene YLR288C
  The level of expressed mRNA in the presence of chemical substance/The level of expressed mRNA in the absence of chemical substance: 1.5
Yeast gene YML032C
  The level of expressed mRNA in the presence of chemical substance/The level of expressed mRNA in the absence of chemical substance: 0.9
Yeast gene YML058W
  The level of expressed mRNA in the presence of chemical substance/The level of expressed mRNA in the absence of chemical substance: 0.7
Yeast gene YMR035W
  The level of expressed mRNA in the presence of chemical substance/The level of expressed mRNA in the absence of chemical substance: 1.4
Yeast gene YMR072W
  The level of expressed mRNA in the presence of chemical substance/The level of expressed mRNA in the absence of chemical substance: 1.0
Yeast gene YMR096W
  The level of expressed mRNA in the presence of chemical substance/The level of expressed mRNA in the absence of chemical substance: 2.0
Yeast gene YMR284W
  The level of expressed mRNA in the presence of chemical substance/The level of expressed mRNA in the absence of chemical substance: 1.1
Yeast gene YNL213C
  The level of expressed mRNA in the presence of chemical substance/The level of expressed mRNA in the absence of chemical substance: 1.8
Yeast gene YNL250W
  The level of expressed mRNA in the presence of chemical substance/The level of expressed mRNA in the absence of chemical substance: 1.3
Yeast gene YNL261W
  The level of expressed mRNA in the presence of chemical substance/The level of expressed mRNA in the absence of chemical substance: 1.1
Yeast gene YNL312W
  The level of expressed mRNA in the presence of chemical substance/The level of expressed mRNA in the absence of chemical substance: 1.2
Yeast gene YOL043C
  The level of expressed mRNA in the presence of chemical substance/The level of expressed mRNA in the absence of chemical substance: 0.9
Yeast gene YOR005C
  The level of expressed mRNA in the presence of chemical substance/The level of expressed mRNA in the absence of chemical substance: 1.3
Yeast gene YOR386W
  The level of expressed mRNA in the presence of chemical substance/The level of expressed mRNA in the absence of chemical substance: 1.0
Yeast gene YPL022W
  The level of expressed mRNA in the presence of chemical substance/The level of expressed mRNA in the absence of chemical substance: 1.0
Yeast gene YPL164C
  The level of expressed mRNA in the presence of chemical substance/The level of expressed mRNA in the absence of chemical substance: 1.0
Yeast gene YPL194W
  The level of expressed mRNA in the presence of chemical substance/The level of expressed mRNA in the absence of chemical substance: 1.3
Yeast gene YPR025C
  The level of expressed mRNA in the presence of chemical substance/The level of expressed mRNA in the absence of chemical substance: 1.3

From patent publication US8192962B2, “Processes for detecting toxic substances” (Daikin Industries, Ltd., priority 2001, dated 2012)
